According to PMC3102601 (2011):

Target: phosphonoacetate hydrolase (PAc hydrolase) (Pseudomonas fluorescens, UniProt Q51782)
Type: biochemical

phosphonoacetate hydrolase (PAc hydrolase), sequence (Q51782 2-407): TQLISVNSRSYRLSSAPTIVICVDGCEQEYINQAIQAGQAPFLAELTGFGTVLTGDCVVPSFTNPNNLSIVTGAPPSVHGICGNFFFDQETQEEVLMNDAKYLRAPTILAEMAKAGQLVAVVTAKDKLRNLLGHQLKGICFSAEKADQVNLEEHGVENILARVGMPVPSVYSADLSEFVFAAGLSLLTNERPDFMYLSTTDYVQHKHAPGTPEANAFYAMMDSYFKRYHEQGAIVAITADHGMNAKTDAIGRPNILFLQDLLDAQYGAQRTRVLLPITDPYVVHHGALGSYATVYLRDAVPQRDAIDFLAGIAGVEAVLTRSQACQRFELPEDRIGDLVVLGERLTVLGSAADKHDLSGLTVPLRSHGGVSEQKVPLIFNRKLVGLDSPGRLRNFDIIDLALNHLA

## O=C(O)C(=O)CP(=O)(O)O [phosphonopyruvate]
  Ki: 1200 ± 800 µM
